Results: patent US5232924A, “Heterocyclic compound having serotonine 2-receptor antagonistic activity” (Daiichi Pharmaceutical Co., Ltd., priority 1989, dated 1993)
Structures can show the parent of a compound that is named as a salt.

Columns and labels:
ddy male mice = assay: Toxicity in mice, repeated oral administration; type: in vivo, mouse
Method: A test compound dissolved or suspended in a 1% methyl cellulose solution was orally administered to ddy male mice (4 or 5 mice per group) at a dose of 200 mg/kg once a day for consecutive 4 days. The number of dead animals per group was counted on the day next to the final administration day. As a control, 10 mλ/kg of 1% methyl cellulose solution was orally administered.

[1] = tested on: Sympathetic Nerve α1 -Receptor; assay: Antagonistic activity on sympathetic nerve α1-receptor: inhibition of the phenylephrine-induced increase in blood pressure in anesthetized rats; type: in vivo; settings: SD-SLC male rat, 10 mg/kg p.o.; after 60 minutes from the administration; inhibition of blood pressure increase by phenylephrine 100 μg/kg i.v.
Method: A test compound dissolved in purified water was orally administered to an SD-SLC male rat at a dose of 10 mg/kg. After 30 minutes from the administration, the rat was anesthetized with urethane (1 g/kg, i.p.) and α-Chloralose (80 mg/kg, i.p.). A polyethylene cannula was inserted into the carotid artery, and the blood pressure was recorded on a polygraph by using a pressure transducer. After 60 minutes from the administration of the test compound, 100 μg/kg of phenylephrine was intravenously injected to observe an increase in blood pressure. Sympathetic nerve α1 -receptor antagonistic activity of the test compound was calculated as a percentage of inhibition of an increase in blood pressure induced by phenylephrine. The inhibitory effect of the test compound was compared with that of vehicle solution treated group.

Serotonin 2-Receptor = molecular target: T1, Serotonin 2-Receptor (Rattus norvegicus, UniProt P14842); assay: Antagonistic activity on serotonin 2-receptor: inhibition of the serotonin-induced increase in blood pressure in anesthetized rats; type: in vivo; settings: SD-SLC male rat, 10 mg/kg p.o., inhibition of blood pressure increase by serotonin 300 μg/kg i.v.
T1 construct: from tissue; host or cells: intact anesthetized SD-SLC male rat (vascular response)
Method: A test compound dissolved in purified water was orally administered to an SD-SLC male rat at a dose of 10 mg/kg. After 30 minutes from the administration, the rat was anesthetized with urethane (1 g/kg, i.p.) and α-Chloralose (80 mg/kg, i.p.). A polyethylene cannula was inserted into the carotid artery, and the blood pressure was recorded on a polygraph by using a pressure transducer. After 60 minutes or 180 minutes from the administration of the test compound, 300 μg/kg of serotonin was intravenously injected, and an increase in blood pressure was observed. Serotonin 2 (hereinafter referred to as […]) antagonistic activity of the test compound was calculated as a percentage of inhibition of an increase in blood pressure induced by […]. The inhibitory effect of the test compound wa compared with that of vehicle solution treated group.

Mongrel dogs [2] = assay: Acute cardiac infarction model: LDA ligature and reperfusion in dogs; type: in vivo; settings: dog, 1 mg/kg/hr intravenous drip, mean ± S.E.M.
Method: Mongrel dogs (body weight: 8 to 20 kg) under anesthesia were ventilated artificially and underwent a left thracotomy. […] A polyethylene cannula was inserted into the femoral artery, and the blood pressure and heart rate were recorded A cannula was inserted into the […] of a drug and also into the carotid artery from which a blood sample was to be taken. After stabilization period of the test preparation, LDA was ligated with a clamp. After 2 hours from the ligature, the clamp was released for reperfusion. After observation for the following 4 hours, the heart was excised. […] Then, the heart was washed and sliced at 1 cm intervals from the apex in the direction vertical to the longer axis. Each slice at the left ventricle was divided into a part which was in risk of cardiac infarction indicated by Evans' Blue stain (hereinafter referred to as risk area) and a normal area, and each area was weighed. The weight of the left ventricle (the sum of the risk area and the normal area) and that of the risk area of each slice were individually added up to obtain the weight of the whole left ventricle and the total weight of the risk area. Further, of each slice, the area of the risk area which was not stained with Evans' Blue and that of a cardiac infarction area within the risk area which remained white, i.e., which was stained neither in blue with Evans' Blue nor in red with triphenyltetrazolium chloride, were measured to obtain a ratio of cardiac infarction part to the whole left ventricle (infarction size). […] The experiment was conducted for the following groups.

rats = assay: Toxicity in rats, oral administration for 10 days; type: in vivo, rat; settings: 5 test animals
Mongrel dogs [3] = assay: Angina pectoris model: partial LDA occlusion with cyclic coronary flow reduction in dogs; type: in vivo; settings: dog, 0.1 mg/kg i.v. (maleate); mean ± S.E.M.; before admin. 9.9 ± 2.5
Method: Mongrel dogs (body weight: 8 to 20 kg) under anesthesia with pentobarbital (30 mg/kg, i.v.) were ventilated artificially and underwent a left thoracotomy. LDA was separated from connected tissues. A silicone tube for partial occlusion was placed around the LDA, and a probe for blood flow rate measurement was fixed in the neighborhood. The blood flow rate was measured with a pulse Doppler blood flow meter. A cannula was inserted into a branch distal to the occlusion site of the left coronary artery, and the coronary blood pressure was measured. A polyethylene cannula was inserted into the femoral artery, and the systemic blood pressure and heart rate were recorded. A cannula was inserted to the femoral vein for administration of a drug.
The effect of the drug was expressed in terms of frequency of the periodic reduction of blood flow rate.

[4] = tested on: Sympathetic Nerve α1 -Receptor; assay: Antagonistic activity on sympathetic nerve α1-receptor: inhibition of the phenylephrine-induced increase in blood pressure in anesthetized rats; type: in vivo; settings: SD-SLC male rat, 10 mg/kg p.o.; after 180 minutes from the administration; inhibition of blood pressure increase by phenylephrine 100 μg/kg i.v.
[5] = ddy male mice, 200 mg/kg p.o. once a day for consecutive 4 days, dead animals per group
[6] = after 60 minutes from the administration

T1 sequence (P14842 whole entry): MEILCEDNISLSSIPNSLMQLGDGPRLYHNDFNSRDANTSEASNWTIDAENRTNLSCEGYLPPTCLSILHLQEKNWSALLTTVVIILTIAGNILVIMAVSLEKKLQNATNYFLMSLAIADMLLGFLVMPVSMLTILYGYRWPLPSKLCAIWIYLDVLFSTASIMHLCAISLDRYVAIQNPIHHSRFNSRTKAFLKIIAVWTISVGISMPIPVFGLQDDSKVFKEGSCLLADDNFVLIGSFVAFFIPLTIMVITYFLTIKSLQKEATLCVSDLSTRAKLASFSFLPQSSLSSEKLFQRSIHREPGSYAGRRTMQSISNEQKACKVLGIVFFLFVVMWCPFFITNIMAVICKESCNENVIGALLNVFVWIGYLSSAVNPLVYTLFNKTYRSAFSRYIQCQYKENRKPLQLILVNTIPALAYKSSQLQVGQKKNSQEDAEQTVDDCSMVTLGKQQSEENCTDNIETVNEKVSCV

Row | SMILES | Toxicity (Death Rate) (ddy male mice; [5]) | Antagonistic Activity α1 (%) [1] [%] | Antagonistic Activity 5-HT2 (%) (Serotonin 2-Receptor; [6]) | further results
1 | Cl.O=C(c1ccc(F)cc1)C1CCN(CCn2nc3n(c2=O)CCCC3)CC1 [Example 51, 2-[2-[4-(4-Fluorobenzoyl)piperidin-1-yl]ethyl]-5,6,7,8-tetrahydro-1,2,4-triazolo[4,3-a]-pyridin-3(2H)-one Hydrochloride] | 0/5 | 3 | 95 | –
2 | Cl.O=C(c1ccc(F)cc1)C1CCN(CCn2c(=O)nc3n(c2=O)CCCC3)CC1 [Example 2, 3-[2-[4-(4-Fluorobenzoyl)piperidin-1-yl]ethyl]-6,7,8,9-tetrahydro-2H-pyrido[1,2-a]-1,3,5-triazine-2,4(3H)-dione Hydrochloride] | 1/5 | 9 | 93 | Myocardial Blood Flow (Mongrel dogs [2]; after 2 h ligature and reperfusion, control 62 ± 9): 89 ± 14 ml/min/100 g; Infarction Size (%) (Mongrel dogs [2]; ratio of cardiac infarction part to the whole left ventricle, control 30 ± 7): 11 ± 3%
3 | CCO.Cl.O=c1n(CCN2CCC(=C(c3ccccc3)c3ccc(F)cc3)CC2)nc2n1CCCCC2 [Example 36, 2-[2-[4-[(4-Fluorophenyl)(phenyl)methylene]piperidin-1-yl]ethyl]-2,5,6,7,8,9-hexahydro-3H-1,2,4-triazolo[4,3-a]azepin-3-one Hydrochloride Ethanolate] | 0/5 | 3 | 84 | –
4 | O=C(c1ccc(F)cc1)C1CCN(CCn2c(=O)nc3n(c2=O)CCCC3)CC1 [Example 3, 3-[2-[4-(4-Fluorobenzoyl)piperidin-1-yl]ethyl]-6,7,8,9-tetrahydro-2H-pyrido1,2-a]-1,3,5-triazine-2,4(3H)-dione Maleate] | 0/5 | 39 | 93 | Number of Dead Animals (rats; 50 mg/kg (p.o.)): 0; Number of Dead Animals (rats; 200 mg/kg (p.o.)): 0; Number of Dead Animals (rats; 800 mg/kg (p.o.)): 0; Frequency of Periodic Reduction in Blood Flow Rate, After Admin. (Mongrel dogs [3]): 2.3 ± 1.2
5 | O=C(c1ccc(Cl)cc1)C1CCN(CCn2nc3n(c2=O)CCCC3)CC1 [Example 75, 2-[2-[4-(4-Chlorobenzoyl)piperidin-1-yl]ethyl]-5,6,7,8-tetrahydro-1,2,4-triazolo[4,3-a]pyridin-3(2H)-one Hydrochloride] | 0/3 | 17 | 83 | –
6 | O=C(c1ccc(F)cc1)C1CCN(CCn2nc3ccccn3c2=O)CC1 [Example 49, 2-[2-[4-(4-Fluorobenzoyl)piperidin-1-yl]ethyl]-1,2,4-triazolo[4,3-a]-pyridin-3(2H)-one Hydrochloride Hemihydrate] | 0/5 | – | – | Antagonistic Activity α1 (%) [4]: 3%; Antagonistic Activity 5-HT2 (%) (Serotonin 2-Receptor; after 180 minutes from the administration): 82%
7 | Cl.Cl.O=c1nc2n(c(=O)n1CCN1CCC(=C(c3ccc(F)cc3)c3ccc(F)cc3)CC1)CCC2 [Example 20, 3-[2-[4-[Bis(4-fluorophenyl)methylene]-piperidin-1-yl]ethyl]-7,8-dihydro-2H,6H-pyrrolo[1,2-a]-1,3,5-triazine-2,4(3H)-dione Dihydrochloride] | – | 1 | 83 | –
8 | O=c1n(CCN2CCC(=C(c3ccc(F)cc3)c3ccc(F)cc3)CC2)nc2n1CCCO2 [Example 44, 2-[2-[4-Bis(4-fluorophenyl)methylene]piperidin-1-yl]ethyl]-6,7-dihydro-5H-1,2,4-triazolo[3.4-b1-1,3-oxazin-3(2H)-one Hydrochloride Hemihydrate] | 2/5 | 2 | 89 | –
9 | O=c1nc2sccn2c(=O)n1CCN1CCC(=C(c2ccc(F)cc2)c2ccc(F)cc2)CC1 [Example 21, 3-[2-[4-[Bis(4-fluorophenyl)methylene]piperidin-1-yl]ethyl]-2H-thiazolo-[3.2-a]-1,3,5-triazine-2,4(3H)-dione Hydrochloride] | – | 3 | 93 | –
10 | O=C(c1ccc(F)cc1)C1(O)CCN(CCn2c(=O)nc3n(c2=O)CCCC3)CC1 [Example 11, 3-[2-[4-(4-Fluorobenzoyl)-4-hydroxy-piperidin-1-yl]ethyl]-6,7,8,9-tetrahydro-2H-pyrido[1,2-a-]-1,3,5-triazine-2,4(3H)-dione Dihydrochloride Hemihydrate] | – | 0 | 83 | –
11 | Cl.O=C(c1ccc(F)cc1)C1(O)CCN(CCn2nc3n(c2=O)CCCC3)CC1 [Example 63, 2-[2-[4-(4-Fluorobenzoyl)-4-hydroxypiperidin-1-yl]ethyl]-5,6,7,8-tetrahydro-1,2,4-triazolo[4,3-a]pyridin-3(2H)-one Hydrochloride] | – | 0 | 85 | –
12 | O=C(O)/C=C\C(=O)O.O=C(c1ccc(F)cc1)[C@@H]1CCN(CCn2nc3n(c2=O)CCCC3)C[C@H]1c1ccc(F)cc1 (relative stereo) [Example 67, 2-[2-[trans-3-(4-Fluorophenyl)-4-(4-fluorobenzoyl)piperidin-1-yl]ethyl]-5,6,7,8-tetrahydro-3H-1,2,4-triazolo[4,3-a]pyridin-3(2H)-one Maleate] | – | 4 | 90 | –
13 | Cc1nc2sccn2c(=O)c1CCN1CCC(=C(c2ccc(F)cc2)c2ccc(F)cc2)CC1 [Ritanserin, reference compound] | 3/5 | 5 | 84 | –
14 | O=C(c1ccc(F)cc1)C1CCN(CCn2c(=O)[nH]c3ccccc3c2=O)CC1 [Ketanserin, reference compound] | – | 73 | 96 | Toxicity (Death Rate) (ddy male mice; mouse, in vivo, po, 200 mg/kg): 5/5
15 | Cl.Cl.O=c1nc2n(c(=O)n1CCN1CCC(=C(c3ccc(F)cc3)c3ccc(F)cc3)CC1)CCCC2 [Example 18, 3-[2-[4-[Bis(4-fluorophenyl)methylene]-piperidin-1-yl]ethyl]-6,7,8,9-tetrahydro-2H-pyrido-[1,2-a]-1,3,5-triazine-2,4(3H)-dione Dihydrochloride] | 0/5 | 6 | 93 | –
16 | O=c1n(CCN2CCC(=C(c3ccc(F)cc3)c3ccc(F)cc3)CC2)nc2n1CCCCC2 [Example 34, 2-[2-[4-[Bis(4-fluorophenyl)methylene]piperidin-1-yl]ethyl]-2,5,6,7,8,9-hexahydro-3H-1,2,4-triazolo[4,3-a]azepin-3-one Hydrochloride Hemihydrate] | 1/4 | 3 | 90 | –
